Patent publication US20010055590A1, “Method for enhancing myoblast migration and invasion in the context of gene therapy” (priority 1999, published 2001)

How the values were obtained:
Format in all cases: cell-based
mouse myoblasts [1] = assay: Invasion of mouse myoblasts transiently over-expressing MMPs; conditions: NAC treatment, n=4
Method: (§1) Myoblast migration and invasion were examined using a commercially available in vitro cell migration and invasion assay kit (Biocoat, Becton Dickinson, Franklin Lakes, N.J.) as described by Albini et al. (A rapid in vitro assay for quantitating the invasive potential of tumor cells Cancer Res 47:3239-3245, 1987). Myoblasts were grown to approximately 70% confluence, rinsed three times in serum-free DMEM, followed by incubation for 3 hours in 0.2% bovine serum albumin (BSA) in DMEM to eliminate the effects of serum. Cells were then trypsinized and collected by centrifugation. Cells were resuspended in serum-free DMEM at a density of 1×10^5 cells/ml, and 0.5 ml aliquots of cell suspension were added to the top chamber. […] Fibronectin subfragments of 45 KDa (Sigma), 120 kDa (Gibco), 63 kDa (Retronectin, Takara) and 70 KDa (Sigma) were used alone or in combination. The growth factor concentrations used were those which could produce maximal effects as examined in the present studies by extending from values reported by Bischoff (“Chemotaxis of skeletal muscle satellite cells” Devel. Dynamics 208:505-515, 1997). […] The number of cells per field was counted in 10 randomly selected fields and averaged for each condition. […]

mouse myoblasts [2] = assay: Migration of mouse myoblasts transiently over-expressing MMPs; conditions: NAC treatment, n=4
Method: as §1

MMP-2 = assay: Gelatin zymography of human myoblasts, MMP-2
Method: Gelatin zymography for assaying MMPs was carried out as previously described (Guerin and Holland “Synthesis and secretion of matrix-degrading metalloproteinases by human skeletal muscle satellite cells” Devel. Dynamics 202:91-99,1995) with minor modifications. Briefly, myoblasts were grown in 6 cm tissue culture plates to approximately 70% confluence, then rinsed three times with serumfree DMEM and incubated for 3 hours in DMEM containing 0.2% BSA to eliminate the effects of serum. Growth factors were added and cells were incubated for 24 hours. Culture medium was then collected, centrifuged to pellet detached cells, and concentrated ten-to twenty-fold using the Centricon-10 (Amicon, Beverly, Mass.) system. The protein concentration of the supernatants was determined using the Bio-Rad protein microassay system with BSA used as the standard. Samples were stored at −70° C. until use. For gelatin zymography, aliquots (10 μg as the total protein per sample) were electrophoresed at constant voltage on a 10% polyacrylamide gel containing 2 mg/ml gelatin. […] Proteinase activity was quantified by densitometric scanning of bands using a Bio-Rad Gel Doc 1000 video camera imaging system (Bio Rad, Hercules, Calif.). […]

[3] = MMP-1 over-expressing myoblasts
[4] = MMP-2 over-expressing myoblasts

Compound | invasion relative to non-treated cells (mouse myoblasts [1]; [3]) | invasion relative to non-treated cells (mouse myoblasts [1]; [4]) | migration capability relative to non-NAC treated cells (mouse myoblasts [2]; [3]) | migration capability relative to non-NAC treated cells (mouse myoblasts [2]; [4]) | MMP-2 activation (MMP-2)
CC(=O)N[C@@H](CS)C(=O)O [NAC, N-acetyl cysteine, reference compound] | 40% | 28% | 35% | 22% | 
human serum fibronectin |  |  |  |  | significant increase in MMP-2 activation
